Assay: Stability of phosphoric acid salt of dronedarone prepared without polymer
Assay type: physicochemical
Conditions: 45° C. and 75% relative humidity (RH)

Compound: CCCCc1oc2ccc(NS(C)(=O)=O)cc2c1C(=O)c1ccc(OCCCN(CCCC)CCCC)cc1.O=P(O)(O)O [phosphoric acid salt of dronedarone]
- Stability: unstable

From patent US20160213569A1, “PHARMACEUTICAL COMPOSITIONS OF RANOLAZINE AND DRONEDARONE” (Gilead Sciences, Inc., priority 2013, published 2016)
